Data as given in US11446265B2, “Reagents, compositions and methods for improving viability and function of cells, tissues and organs” (TARGA BIOMEDICAL, priority 2016, dated 2022).

Experiments:
[1] = tested on: heat shock response (HSR); assay: Heat shock response luciferase reporter assay in H9c2; format: cell-based, rat; details: H9c2, 10E-5 to 10E-10M, 4 hours, 3 hours washout
Description: (§1) H9c2 rat cardiomyoblasts were seeded at a density of 5,000 cells per well in 96 well plates in DMEM 10% FBS complete medium and transfected using lipofectamine with the Cignal Reporter Assay Heat shock response and Antioxidant response kits (SABiosciences, Qiagen) according to the manufacturers' protocol.

H9c2 cardiomyoblasts [2] = assay: H9c2 viability under hypoxia/reoxygenation stress; format: cell-based, rat; details: 1 uM
Description: Next, the hypoxia/reoxygenation challenge is performed. Briefly, viability analysis was performed in rat H9c2 cardiomyoblasts as previously reported. For hypoxia/reoxygenation stress, cells were cultured in DMEM no glucose (Life Technologies), serum starved and placed in hypoxic conditions (<1% O2) for 18 h. At reoxygenation (normoxic conditions), cells were treated with Celastrol (10^−10 to 10^−6 mol/L, Cayman Chemical, Ann Arbor, Mich.), Celastrol analogs or vehicle (Dimethyl sulfoxide (DMSO), Sigma-Aldrich Canada, Oakville, ON; final concentration<1% v/v) in DMEM high glucose 1% FBS for 1 h, then reoxygenation was continued in DMEM high glucose for an additional 5 h.

[3] = tested on: antioxidant responsive elements (ARE); assay: Antioxidant response luciferase reporter assay in H9c2; format: cell-based, rat; details: H9c2, 10E-5 to 10E-10M, 4 hours, 3 hours washout
Description: as §1

H9c2 cardiomyoblasts [4] = assay: H9c2 viability under hypoxia/serum starvation (LIVE/DEAD); format: cell-based, rat; details: 1 uM
Description: For survival to hypoxic challenge and oxidative challenge, H9c2 cardiomyoblasts are submitted to the hypoxia/serum starvation (<1% O2 in hypoxia chamber in low serum media for 48 hours) or oxidative stress (incubation in media for 1 hour spiked with 0-1 mM H2O2). Viability status of H9c2 cells was evaluated using the LIVE/DEAD assay.

[5] = tested on: human mesenchymal stem cells (hMSC); assay: mRNA expression in hMSC by real-time PCR; format: cell-based; details: FIGS. 25A, 25B, 26A to 26D
Description: FIG. 25A is a table representing mRNA expression of selected genes measured by real-time PCR in human mesenchymal stem cells (hMSC) conditioned with Celastrol alone or in combination with selected adjunct agents. Results are expressed as fold change versus Vehicle-treated cells.
FIG. 25B is a table representing mRNA expression of selected genes measured by real-time PCR in human mesenchymal stem cells (hMSC) conditioned with selected Celastrol analogs alone or in combination with selected adjunct agents. Results are expressed as fold change versus Vehicle-treated cells.
Results are expressed as fold change versus Vehicle-treated cells. (Arbitrary angiogenic index: (VEGFa+FGF2+SDF1)*2) (A=Additive effect; S=Synergistic effect).
(§2) To test the second main condition, MSCs were treated with the candidate pharmaco-optimizers for 1 hour, followed by 3 hours washout period. Cell mRNA was extracted and expression of genes of interest was quantified by real time PCR. In additional MSC cultures, cells were treated for one hour, washed and cultured in low serum media for 24 hours. The media containing paracrine factors secreted by MSCs was then placed in contact with H9c2 cardiomyoblast cell line. H9c2 cells were then submitted to the hypoxia/serum starvation (<1% O2 in hypoxia chamber in low serum media for 48 hours) or oxidative stress (incubation in media for 1 hour spiked with 0-1 mM H2O2). Viability status of H9c2 cells was evaluated using the LIVE/DEAD assay as detailed above.

isolated perfused heart = tested on: isolated perfused heart; set-up: species or system rat
[6] = Rat myocardial ischemia/reperfusion in vivo, echocardiography at 24 h; details: 1 mg/Kg intraventricular, vs Vehicle
Description: Rats were randomly assigned to the following groups: Sham (n=6), Vehicle (n=8), Celastrol 1 mg/Kg (n=6) or Celastrol analogs. Under 2% isoflurane anesthesia, baseline echocardiography using a Sonos 5500 Imaging System (Philips, Philips Healthcare, Andover, Mass., USA) with a 12 MHz transducer was performed as described^12. All measures were acquired by the same experienced observer, blinded to the treatment. For each measurement, three to five cardiac cycles were analysed and averaged.
After echocardiography, the animal was intubated and mechanically ventilated, then bupivacaine 2 mg/kg was injected, and a left thoracotomy was performed, exposing the heart. Using a 5-0 silk slipknot, an occlusion of the left anterior descending coronary artery was performed. Visual blanching and electrocardiographic changes confirmed myocardial ischemia. In Sham animals, suture was not ligated. After 30 minutes, the suture occlusion was released. Celastrol, Celastrol analogs or vehicle was injected intraventricularly for acute systemic delivery, then the chest was closed. Buprenorfine (0.05 mg/Kg sc) and carprofen (5 mg/Kg sc) were injected at the end of surgery. Animals were left to recuperate for 24 h, then a second echocardiography was performed. Animals were sacrificed, cardiac tissue was snap frozen, and blood was collected in heparinized tubes, then centrifuged at 4° C. Plasma was collected, snap frozen and kept at −80° C. until analysis.

human MSCs = assay: Screen of compounds for viability of human MSCs under hypoxic stress; format: cell-based; details: FIG. 1
Description: In an attempt to identify conditioning compounds that are able to ensure in vivo cellular viability, based on preliminary evidence using Celastrol, over a dozen compounds with structural similarities identified through literature and the Sigma-Aldrich® Structure Search online tool, were screened. The compounds' capacity to improve viability of human MSCs challenged to hypoxic stress was measured. The molecules that were screened, most of which are natural compounds, can be classified as triterpenoids, limonoids, withanolides, sterols, isoprenoides/ diterpenes and flavonoids. Classical HSP90 inhibitors were also added to the screen, such as Radicicol that directly target the ATP binding pocket at the NT region of HSP90^9 (NT inhibitor). […] 28; 42(2):260-6.^10Patwardhan C. A. et al., J Biol Chem. 2013 Mar. 8; 288(10):7313-25.^11Sreeramulu S. et al., Angew Chem Int Ed Engl. 2009; 48(32):5853-5.^12Gu M., et al. Invest New Drugs. 2014 Feb.;32(1):68-74.

[7] = tested on: rat mesenchymal stem cells (rMSC); assay: mRNA expression in rMSC by real time PCR; format: cell-based; details: rMSC, 1-hour treatment and 3-hour washout, co-treatment with EGCG or tBHQ
Description: as §2
Combination Treatments Tested—First Experiment: Celastrol (1 μM) or Gedunin (1 μM)+EGCG (1 μM, 10 μM) or TBHQ (1 μM, 5 μM)

[8] = tested on: rat mesenchymal stem cells (rMSC); assay: rMSC viability after hypoxia/serum starvation (LIVE/DEAD); format: cell-based; details: 1-hour treatment, compound alone
Description: (§3) To test the first main condition, MSCs (either sourced from rat or humans) were treated with the candidate pharmaco-optimizers, washed and submitted to hypoxia/serum starvation (<1% O2 in hypoxia chamber in low serum media for 48-72 hours) or oxidative stress (incubation in media for 1 hour spiked with 0-2 mM H2O2), which mimic the major lethal stressors present in the ischemic transplant microenvironment. Viability status of cells are assessed using the LIVE/DEAD viability/cytotoxicity kit (Life Technologies™) and results are quantified by Operetta high content screening (HCS) apparatus equipped with Harmony automated analysis software (Perkin Elmer™).

[9] = tested on: H9c2 cardiomyoblast cell line; assay: H9c2 viability in hypoxia after pre-conditioning with media from treated rMSC (paracrine); format: cell-based, rat; details: 48-hour pre-conditioning with media from treated rMSC; Gedunin high dose
Description: as §2

H9c2 cells = assay: H9c2 viability in oxidative stress after pre-conditioning with media from treated rMSC (paracrine); format: cell-based, rat; details: 24-hour preconditioning with media from treated rMSC
Description: as §2

[10] = tested on: rat mesenchymal stem cells (rMSC); assay: rMSC viability after oxidative stress (H2O2, LIVE/DEAD); format: cell-based; details: 1-hour treatment, compound alone
Description: as §3

[11] = 10^−8 mol/L dose, vs Vehicle (DMSO)

Row | SMILES | stimulation of reporter gene controlled by heat shock responsive elements (HSR) [1] | protection of H9c2 cardiomyoblasts from hypoxia/reoxygenation stress (H9c2 cardiomyoblasts [2]) | stimulation of reporter gene controlled by antioxidant responsive elements (ARE) [3] | protection of H9c2 cardiomyoblasts from hypoxia (H9c2 cardiomyoblasts [4]) | ranking as HSP90 inhibitor from expression of HSPs, growth factors, antioxidant proteins/enzymes, cytokines, matrix remodeling proteins [5] | infarct area measured by TTC stain (isolated perfused heart) | Coronary reserve flow (CRF) (isolated perfused heart; [11]) | I/R-induced systolic dysfunction (+/−dP/dt, generated pressure, EDP, contractility index) (isolated perfused heart; [11]) | high sensitivity troponin T (TNT-hs) release (isolated perfused heart; [11]) | cardiac output (CO) following I/R injury [6] | ejection fraction (EF) following I/R injury [6] | fractional shortening (FS) following I/R injury [6] | stroke volume (SV) following I/R injury [6] | capacity to improve viability of human MSCs challenged to hypoxic stress (human MSCs) | IL-1β mRNA expression induced by EGCG and tBHQ [7] | protection of rMSCs from 48-hour hypoxia induced cell death [8] | protection of H9c2 from 48-hour hypoxia-induced cell death (paracrine) [9] | protection of H9c2 cells from oxidative stress induced death (paracrine) (H9c2 cells) | protection of rMSCs from oxidative stress induced death [10]
1 | CC1=C(O)C(=O)C=C2C1=CC=C1[C@@]2(C)CC[C@@]2(C)[C@@H]3C[C@](C)(C(N)=O)CC[C@]3(C)CC[C@]12C [Analog 1] | among the most potent and efficient compounds tested | effective | among the most potent and efficient compounds tested | effective | best HSP90 inhibitors | significantly reduced | preserved | protected the heart from I/R-induced systolic dysfunction | significantly reduced | preserving | preserving | preserving | preserving |  |  |  |  |  | 
2 | CC(=O)O[C@@H]1C[C@H]2C(C)(C)C(=O)C=C[C@]2(C)[C@H]2CC[C@@]3(C)[C@H](c4ccoc4)OC(=O)[C@H]4O[C@]43[C@@]21C [Gedunin] |  |  |  |  |  |  |  |  |  |  |  |  |  | top scoring | downregulate | protect | protects | protects | protect treated cells from oxidative stress-induced death
3 | C[C@@H]1C[C@H]2O[C@@H]2/C=C\C=C\C(=O)Cc2c(Cl)c(O)cc(O)c2C(=O)O1 [Radicicol] |  |  |  |  |  |  |  |  |  |  |  |  |  |  |  | protect | does not produce a mediator for paracrine efficacy | no protection | not
